Data from US8088815B2, “Spiroindolinone pyrrolidines” (Hoffman-La Roche Inc., priority 2009, dated 2012).
pIC50: −log10 of the molar value.

These molecules were tested against interaction between p53 and MDM2 proteins (Homo sapiens, UniProt Q00987) (assay: HTRF assay of inhibition of the p53-MDM2 interaction (GST-MDM2 / biotinylated p53 peptide)). Settings: recombinant GST-tagged MDM2 and biotinylated p53 peptide, bsa:0.02%.
Type: binding
Procedure: The ability of the compounds to inhibit the interaction between p53 and MDM2 proteins was measured by an HTRF (homogeneous time-resolved fluorescence) assay in which recombinant GST-tagged MDM2 binds to a peptide that resembles the MDM2-interacting region of p53. Binding of GST-MDM2 protein and p53-peptide (biotinylated on its N-terminal end) is registered by the FRET (fluorescence resonance energy transfer) between Europium (Eu)-labeled anti-GST antibody and streptavidin-conjugated Allophycocyanin (APC).
Add 10 uL diluted compounds (1:5 dilution in reaction buffer) to each well, mix by shaking. Add 20 uL biotinylated p53 peptide (180 nM working solution) in reaction buffer to each well and mix on shaker. Incubate at 37° C. for 1 h. Add 20 uL streptavidin-APC and Eu-anti-GST antibody mixture (6 nM Eu-anti-GST and 60 nM streptavidin-APC working solution) in TBS buffer with 0.2% BSA, shake at room temperature for 30 minutes and read using a TRF-capable plate reader at
665 and 615 nm (Victor 5, Perkin ElmerWallac). If not specified, the reagents were purchased from Sigma Chemical Co.

Chain of interaction between p53 and MDM2 proteins (Q00987 whole entry): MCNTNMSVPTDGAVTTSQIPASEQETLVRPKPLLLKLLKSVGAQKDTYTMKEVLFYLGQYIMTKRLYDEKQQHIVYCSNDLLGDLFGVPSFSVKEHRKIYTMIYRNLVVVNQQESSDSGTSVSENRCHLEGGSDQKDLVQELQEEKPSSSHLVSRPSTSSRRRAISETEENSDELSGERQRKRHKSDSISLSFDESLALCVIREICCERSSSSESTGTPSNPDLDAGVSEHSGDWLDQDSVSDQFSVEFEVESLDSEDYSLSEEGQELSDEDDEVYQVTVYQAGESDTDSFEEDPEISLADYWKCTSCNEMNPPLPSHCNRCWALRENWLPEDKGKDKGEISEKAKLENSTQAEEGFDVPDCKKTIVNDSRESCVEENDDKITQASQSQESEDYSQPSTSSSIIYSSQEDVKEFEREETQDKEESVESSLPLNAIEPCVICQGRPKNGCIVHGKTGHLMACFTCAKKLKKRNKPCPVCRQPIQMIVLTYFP

SMILES	pIC50
CC(C)(C)C[C@@H]1N[C@@H](C(=O)Nc2ccc(S(C)(=O)=O)cc2F)[C@H](c2cccc(Cl)c2F)[C@]12C(=O)Nc1cc(Cl)ccc12 (racemic) [Example 37, rac-(2′S,3′R,4′S,5′R)-6-chloro-4′-(3-chloro-2-fluoro-phenyl)-2′-(2,2-dimethyl-propyl)-2-oxo-1,2-dihydro-spiro[indole-3,3′-pyrrolidine]-5′-carboxylic acid (2-fluoro-4-methanesulfonyl-phenyl)-amide]	< 5.00
CC(C)(C)C[C@@H]1N[C@@H](C(=O)Nc2ccc(C(=O)CO)cc2)[C@H](c2cccc(Cl)c2F)[C@]12C(=O)Nc1cc(Cl)ccc12 (racemic) [Example 42, rac-(2′S,3′R,4′S,5′R)-6-chloro-4′-(3-chloro-2-fluoro-phenyl)-2′-(2,2-dimethyl-propyl)-2-oxo-1,2-dihydro-spiro[indole-3,3′-pyrrolidine]-5′-carboxylic acid [4-(2-hydroxy-acetyl)-phenyl]-amide]	7.85
CC(C)(C)C[C@@H]1N[C@@H](C(=O)Nc2ccn(CCO)n2)[C@H](c2cccc(Cl)c2F)[C@]12C(=O)Nc1cc(Cl)ccc12 (racemic) [Example 44, rac-(2′S,3′R,4′S,5′R)-6-chloro-4′-(3-chloro-2-fluoro-phenyl)-2′-(2,2-dimethyl-propyl)-2-oxo-1,2-dihydro-spiro[indole-3,3′-pyrrolidine]-5′-carboxylic acid [1-(2-hydroxy-ethyl)-1H-pyrazol-3-yl]-amide]	8.00
CC(C)(C)C[C@@H]1N[C@@H](C(=O)Nc2ccc(C#N)cc2)[C@H](c2cccc(Cl)c2F)[C@]12C(=O)Nc1cc(Cl)c(F)cc12 (racemic) [Example 48, rac-(2′S,3′R,4′S,5′R)-6-chloro-4′-(3-chloro-2-fluoro-phenyl)-2′-(2,2-dimethyl-propyl)-5-fluoro-2-oxo-1,2-dihydro-spiro[indole-3,3′-pyrrolidine]-5′-carboxylic acid (4-cyano-phenyl)-amide]	7.80
CC(C)(C)C[C@@H]1N[C@@H](C(=O)Nc2ccc(C(N)=O)cc2)[C@H](c2cccc(Cl)c2F)[C@]12C(=O)Nc1cc(Cl)c(F)cc12 (racemic) [Example 49, rac-(2′S,3′R,4′S,5′R)-6-chloro-4′-(3-chloro-2-fluoro-phenyl)-2′-(2,2-dimethyl-propyl)-5-fluoro-2-oxo-1,2-dihydro-spiro[indole-3,3′-pyrrolidine]-5′-carboxylic acid (4-carbamoyl-phenyl)-amide]	7.89
CC(C)(C)C[C@@H]1N[C@@H](C(=O)Nc2ccc(I)cc2F)[C@H](c2cccc(Cl)c2F)[C@]12C(=O)Nc1cc(Cl)ccc12 (racemic) [Example 51, rac-(2′S,3′R,4′S,5′R)-6-chloro-4′-(3-chloro-2-fluoro-phenyl)-2′-(2,2-dimethyl-propyl)-2-oxo-1,2-dihydro-spiro[indole-3,3′-pyrrolidine]-5′-carboxylic acid (2-fluoro-4-iodo-phenyl)-amide]	7.70
CC(C)(C)C[C@@H]1N[C@@H](C(=O)Nc2ccc(C#N)cc2F)[C@H](c2cccc(Cl)c2F)[C@]12C(=O)Nc1cc(Cl)ccc12 (racemic) [Example 52, rac-(2′S,3′R,4′S,5′R)-6-chloro-4′-(3-chloro-2-fluoro-phenyl)-2′-(2,2-dimethyl-propyl)-2-oxo-1,2-dihydro-spiro[indole-3,3′-pyrrolidine]-5′-carboxylic acid (4-cyano-2-fluoro-phenyl)-amide]	7.92
CC(C)(C)C[C@@H]1N[C@@H](C(=O)Nc2ccc(C(N)=O)cc2F)[C@H](c2cccc(Cl)c2F)[C@]12C(=O)Nc1cc(Cl)ccc12 (racemic) [Example 53, rac-(2′S,3′R,4′S,5′R)-6-chloro-4′-(3-chloro-2-fluoro-phenyl)-2′-(2,2-dimethyl-propyl)-2-oxo-1,2-dihydro-spiro[indole-3,3′-pyrrolidine]-5′-carboxylic acid (4-carbamoyl-2-fluoro-phenyl)-amide]	7.96
CC(C)(C)C[C@@H]1N[C@@H](C(=O)Nc2ccn(CC(C)(C)O)n2)[C@H](c2cccc(Cl)c2F)[C@]12C(=O)Nc1cc(Cl)ccc12 (racemic) [Example 55, rac-(2′S,3′R,4′S,5′R)-6-chloro-4′-(3-chloro-2-fluoro-phenyl)-2′-(2,2-dimethyl-propyl)-2-oxo-1,2-dihydro-spiro[indole-3,3′-pyrrolidine]-5′-carboxylic acid [1-(2-hydroxy-2-methyl-propyl)-1H-pyrazol-3-yl]-amide trifluoroacetic acid]	7.89
CC(C)(C)C[C@@H]1N[C@@H](C(=O)Nc2ccc(I)cc2)[C@H](c2cccc(Cl)c2F)[C@]12C(=O)Nc1cc(Cl)ccc12 (racemic) [Example 56, rac-(2′S,3′R,4′S,5′R)-6-chloro-4′-(3-chloro-2-fluoro-phenyl)-2′-(2,2-dimethyl-propyl)-2-oxo-1,2-dihydro-spiro[indole-3,3′-pyrrolidine]-5′-carboxylic acid (4-iodo-phenyl)-amide]	7.72
COc1cc(C#N)ccc1NC(=O)[C@@H]1N[C@@H](CC(C)(C)C)[C@@]2(C(=O)Nc3cc(Cl)ccc32)[C@H]1c1cccc(Cl)c1F (racemic) [Example 58, rac-(2′S,3′R,4′S,5′R)-6-chloro-4′-(3-chloro-2-fluoro-phenyl)-2′-(2,2-dimethyl-propyl)-2-oxo-1,2-dihydro-spiro[indole-3,3′-pyrrolidine]-5′-carboxylic acid (4-cyano-2-methoxy-phenyl)-amide]	7.64
COc1cc(C(N)=O)ccc1NC(=O)[C@@H]1N[C@@H](CC(C)(C)C)[C@@]2(C(=O)Nc3cc(Cl)ccc32)[C@H]1c1cccc(Cl)c1F (racemic) [Example 59, rac-(2′S,3′R,4′S,5′R)-6-chloro-4′-(3-chloro-2-fluoro-phenyl)-2′-(2,2-dimethyl-propyl)-2-oxo-1,2-dihydro-spiro[indole-3,3′-pyrrolidine]-5′-carboxylic acid (4-carbamoyl-2-methoxy-phenyl)-amide]	7.85
CC(C)(C)C[C@@H]1N[C@@H](C(=O)Nc2ccc(C#N)cc2)[C@H](c2cccc(Cl)c2)[C@]12C(=O)Nc1cc(Cl)ccc12 (racemic) [Example 64, rac-(2′S,3′R,4′R,5′R)-6-chloro-4′-(3-chloro-phenyl)-2′-(2,2-dimethyl-propyl)-2-oxo-1,2-dihydro-spiro[indole-3,3′-pyrrolidine]-5′-carboxylic acid (4-cyano-phenyl)-amide]	7.47
CC(C)(C)C[C@@H]1N[C@@H](C(=O)Nc2ccc(C(N)=O)cc2)[C@H](c2cccc(Cl)c2)[C@]12C(=O)Nc1cc(Cl)ccc12 (racemic) [Example 65A, rac-(2′S,3′R,4′R,5′R)-6-chloro-4′-(3-chloro-phenyl)-2′-(2,2-dimethyl-propyl)-2-oxo-1,2-dihydro-spiro[indole-3,3′-pyrrolidine]-5′-carboxylic acid (4-carbamoyl-phenyl)-amide]	8.05
COc1cc(C#N)ccc1NC(=O)[C@@H]1N[C@@H](CC(C)(C)C)[C@@]2(C(=O)Nc3cc(Cl)ccc32)[C@H]1c1cccc(Cl)c1 (racemic) [Example 66, rac-(2′S,3′R,4′R,5′R)-6-chloro-4′-(3-chloro-phenyl)-2′-(2,2-dimethyl-propyl)-2-oxo-1,2-dihydro-spiro[indole-3,3′-pyrrolidine]-5′-carboxylic acid (4-cyano-2-methoxy-phenyl)-amide]	7.85
COc1cc(C(N)=O)ccc1NC(=O)[C@@H]1N[C@@H](CC(C)(C)C)[C@@]2(C(=O)Nc3cc(Cl)ccc32)[C@H]1c1cccc(Cl)c1 (racemic) [Example 67, rac-(2′S,3′R,4′R,5′R)-6-chloro-4′-(3-chloro-phenyl)-2′-(2,2-dimethyl-propyl)-2-oxo-1,2-dihydro-spiro[indole-3,3′-pyrrolidine]-5′-carboxylic acid (4-carbamoyl-2-methoxy-phenyl)-amide]	8.00
CC(C)(C)C[C@@H]1N[C@@H](C(=O)Nc2ccc(C#N)cc2)[C@H](c2cccc(Cl)c2F)[C@]12C(=O)Nc1cc(Cl)cc(F)c12 (racemic) [Example 72, rac-(2′S,3′R,4′S,5′R)-6-chloro-4′-(3-chloro-2-fluoro-phenyl)-2′-(2,2-dimethyl-propyl)-4-fluoro-2-oxo-1,2-dihydro-spiro[indole-3,3′-pyrrolidine]-5′-carboxylic acid (4-cyano-phenyl)-amide]	7.66
CC(C)(C)C[C@@H]1N[C@@H](C(=O)Nc2ccc(C(N)=O)cc2)[C@H](c2cccc(Cl)c2F)[C@]12C(=O)Nc1cc(Cl)cc(F)c12 (racemic) [Example 73, rac-(2′S,3′R,4′S,5′R)-6-chloro-4′-(3-chloro-2-fluoro-phenyl)-2′-(2,2-dimethyl-propyl)-4-fluoro-2-oxo-1,2-dihydro-spiro[indole-3,3′-pyrrolidine]-5′-carboxylic acid (4-carbamoyl-phenyl)-amide]	7.96
COc1cc(C#N)ccc1NC(=O)[C@@H]1N[C@@H](CC(C)(C)C)[C@@]2(C(=O)Nc3cc(Cl)cc(F)c32)[C@H]1c1cccc(Cl)c1F (racemic) [Example 75, rac-(2′S,3′R,4′S,5′R)-6-chloro-4′-(3-chloro-2-fluoro-phenyl)-2′-(2,2-dimethyl-propyl)-4-fluoro-2-oxo-1,2-dihydro-spiro[indole-3,3′-pyrrolidine]-5′-carboxylic acid (4-cyano-2-methoxy-phenyl)-amide]	7.70
